Measured values from ChEMBL document CHEMBL2429866, “New aminoadamantane derivatives with antiproliferative activity” (Med Chem Res, 2013).

What was measured:
NCI-H460 = test: Cytotoxicity against human NCI-H460 cells after 48 hrs by SRB assay; type: functional; settings: NCI-H460, 48 h
DU-145 = test: Cytotoxicity against human DU145 cells after 48 hrs by SRB assay; type: functional; settings: DU-145, 48 h
SF-268 = test: Cytotoxicity against human SF268 cells after 48 hrs by SRB assay; type: functional; settings: SF-268, 48 h
U-251 = test: Cytotoxicity against human U251 cells after 48 hrs by SRB assay; type: functional; settings: U-251, 48 h
PC-3 = test: Cytotoxicity against human PC3 cells after 48 hrs by SRB assay; type: functional; settings: PC-3, 48 h
MCF7 = test: Cytotoxicity against human MCF7 cells after 48 hrs by SRB assay; type: functional; settings: MCF7, 48 h
COLO 205 = test: Cytotoxicity against human COLO205 cells after 48 hrs by SRB assay; type: functional; settings: COLO 205, 48 h
[1] = Cytotoxicity against human NCI-ADR-RES cells after 48 hrs by SRB assay; type: functional
[2] = Cytotoxicity against human CAKI cells after 48 hrs by SRB assay; type: functional
[3] = Cytotoxicity against human MSC cells after 48 hrs by SRB assay; type: cell-based; settings: for GI50 at 48 h: MSC cells; for TGI: msc, 48 h
HCT-116 = test: Cytotoxicity against human HCT116 cells after 48 hrs by SRB assay; type: functional; settings: HCT-116, 48 h
A549 = test: Cytotoxicity against human A549 cells after 48 hrs by SRB assay; type: functional; settings: A549, 48 h
IGROV-1 = test: Cytotoxicity against human IGROV1 cells after 48 hrs by SRB assay; type: functional; settings: IGROV-1, 48 h
MDA-MB-231 = test: Cytotoxicity against human MDA-MB-231 cells after 48 hrs by SRB assay; type: functional; settings: MDA-MB-231, 48 h
[4] = Cytotoxicity against human EKVX cells after 48 hrs by SRB assay; type: functional
OVCAR-5 = test: Cytotoxicity against human OVCAR5 cells after 48 hrs by SRB assay; type: functional; settings: OVCAR-5, 48 h
[5] = (§1) Cytotoxicity against human NHDF cells after 48 hrs by SRB assay; type: cell-based; settings: NHDF cells
NHDF = test: as §1; type: cell-based; settings: nhdf, 48 h
SK-MEL-28 = test: Cytotoxicity against human SK-MEL-28 cells after 48 hrs by SRB assay; type: functional; settings: SK-MEL-28, 48 h
DMS-114 = test: Cytotoxicity against human DMS114 cells after 48 hrs by SRB assay; type: functional; settings: DMS-114, 48 h
HCT-15 = test: Cytotoxicity against human HCT15 cells after 48 hrs by SRB assay; type: functional; settings: HCT-15, 48 h
LNCaP = test: Cytotoxicity against human LNCAP cells after 48 hrs by SRB assay; type: functional

| Compound | GI50 (NCI-H460) [µM] | TGI (NCI-H460) [µM] | GI50 (SF-268) [µM] | TGI (SF-268) [µM] | GI50 (U-251) [µM] | TGI (U-251) [µM] | GI50 (MCF7) [µM] | TGI (MCF7) [µM] | GI50 (COLO 205) [µM] | TGI (COLO 205) [µM] | GI50 [1] [µM] | TGI [1] [µM] | GI50 (HCT-116) [µM] | TGI (HCT-116) [µM] | GI50 (DMS-114) [µM] | TGI (DMS-114) [µM] | further results |
| --- | --- | --- | --- | --- | --- | --- | --- | --- | --- | --- | --- | --- | --- | --- | --- | --- | --- |
| NC1C2CC3CC(C2)CC1(c1ccccc1)C3 (stereo not given) | 100 | 100 | 100 | 100 | 100 | 100 | 69.3 | 100 | 84.5 | 100 |  |  |  |  |  |  | GI50 (DU-145): 100 µM; TGI (DU-145): 100 µM; GI50 (PC-3): 82.9 µM; TGI (PC-3): 89.3 µM |
| Cl.NC1C2CC3CC(C2)CC1(Cc1ccccc1)C3 (stereo not given) |  |  | 21 | 56.8 |  |  | 5.5 | 9.5 | 7.12 | 33.2 | 6.7 | 30 | 6.59 | 35.8 |  |  | GI50 (DU-145): 6.68 µM; TGI (DU-145): 29.8 µM; GI50 [2]: 6.54 µM; TGI [2]: 26.8 µM; GI50 at 48 h [3]: 9.55 µM; TGI [3]: 45.56 µM; GI50 (A549): 8.67 µM; TGI (A549): 43.7 µM; GI50 (IGROV-1): 7.6 µM; TGI (IGROV-1): 36.5 µM; GI50 (MDA-MB-231): 6.68 µM; TGI (MDA-MB-231): 46.6 µM; GI50 [4]: 6.94 µM; TGI [4]: 29.2 µM; GI50 (OVCAR-5): 8.35 µM; TGI (OVCAR-5): 37.8 µM |
| Cl.NC1C2CC3CC(C2)CC1(Cc1ccc(F)cc1)C3 (stereo not given) | 13.7 | 52 | 7.83 | 37.4 | 21.8 | 50.9 | 4.6 | 8.7 |  |  | 7.4 | 24.4 | 5.6 | 17.5 | 9.38 | 50.4 | GI50 at 48 h [5]: 17.9 µM; TGI (NHDF): 52.8 µM; GI50 (SK-MEL-28): 13.2 µM; TGI (SK-MEL-28): 45 µM; GI50 (HCT-15): 19.4 µM; TGI (HCT-15): 53.8 µM |
| COc1ccc(CC23CC4CC(CC(C4)C2N)C3)cc1.Cl (stereo not given) | 31.2 | 62.4 | 21.2 | 50.7 | 31.2 | 58 | 7.4 | 42.3 |  |  | 29.3 | 55.3 | 18.5 | 52.2 | 40.1 | 73.9 | GI50 at 48 h [5]: 27.7 µM; TGI (NHDF): 58.8 µM; GI50 at 48 h [3]: 24.8 µM; TGI [3]: 56.05 µM; GI50 (SK-MEL-28): 31.8 µM; TGI (SK-MEL-28): 60.7 µM; GI50 (HCT-15): 38.8 µM; TGI (HCT-15): 75 µM |
| c1ccc2c(c1)CNC1C3CC4CC(C3)CC21C4 (stereo not given) | 100 | 100 | 100 | 100 |  |  | 52 | 100 |  |  |  |  | 63.9 | 100 |  |  |  |
| CN(C)CCNC1C2CC3CC(C2)CC1(Cc1ccccc1)C3 (stereo not given) |  |  | 29.3 | 57.1 |  |  | 25.9 | 54.1 | 25.4 | 59.9 |  |  | 24 | 55.9 | 26.5 | 58.1 | GI50 (LNCaP): 24.4 µM; TGI (LNCaP): 54.7 µM |
| c1ccc(CC23CC4CC(CC(C4)C2NCCN2CCCCC2)C3)cc1 (stereo not given) | 6.32 | 32.2 | 13.1 | 45.9 |  |  | 6.75 | 33.2 |  |  |  |  | 9.94 | 51.7 |  |  |  |
